We go through 17 molecules from US9663478B2, “Benzotriazine oxides as drugs targeting Mycobacterium tuberculosis” (priority 2011, dated 2017).

Series [1] relates to Mtb H37Rv. As to the kind of experiment: TB MIC - SRI, resazurin-based microplate assay. As to conditions: for MIC: Mycobacterium tuberculosis, H37RV. The series is classed as cell-based, Mycobacterium tuberculosis. (Alamar Blue is a resazurin reagent that responds to reducing activity.)
In series [2] the test system is Mtb H37Rv. The experiment in a line: TB MIC - ITR (UIC), Institute for Tuberculosis Research. As to conditions: for MIC: Mycobacterium tuberculosis, H37RV, read-out: TB MIC - ITR; for TB MIC - UIC: Tables P1, P2. In kind it is cell-based, Mycobacterium tuberculosis.
A further series relates to NRP Mtb H37Rv cells. As to the kind of experiment: Low-oxygen recovery assay (LORA) MIC. In kind it is cell-based, Mycobacterium tuberculosis. To be noted: for MIC: Mycobacterium tuberculosis, H37RV, read-out: LORA MIC - ITR; for LORA MIC: Tables P1, P2, non-replicating M. tuberculosis.
[3] abbreviates: Tables 1-4 and text, read-out: TB MIC - SRI.
Setting [4] is: Tables P1-P3, read-out: TB MIC - SRI.
Setting [5] is: read-out: Activity against H37Rv, Table P4.
Where [6] appears, read: read-out: TB MIC - SRI, Tables P1-P3.

The structures appear in SMILES notation. Values after ≈ are worked out from the molar mass of the structure shown. Read-outs that look alike come from different tables or passages of the source.

For the molecule `[O-][n+]1nc(N[C@@H]2C[C@H]3CC[C@@H]2C3)[n+]([O-])c2ccc(Cl)cc21` [Compound 15bm, 3-((1R,2R,4S)-bicyclo[2.2.1]heptan-2-ylamino)-7-chlorobenzo[e][1,2,4]triazine 1,4-dioxide], the MIC stood at 0.15 µg/mL (≈ 0.489 µM) with Mtb H37Rv [1] (setting [3]); 0.22 µg/mL (≈ 0.717 µM) with Mtb H37Rv [2] (Tables 1-4); 0.23 µg/mL (≈ 0.75 µM) in the series with NRP Mtb H37Rv cells (NRP Mtb, Tables 1-4 and text). Further, the “Vero Tox CC50” value in the series with Vero cells (African green monkey, 72 h) was 1.1 µg/mL.
With `[O-][n+]1nc(NC2CCC2)[n+]([O-])c2cc3c(cc21)CCC3` [Compound 15fd, Cyclobutyl-(5,8-dioxy-2,3-dihydro-1H-5,6,8-triaza-cyclopenta[b]naphthalen-7-yl)-amine], in the series with Mtb H37Rv [1] (Table 5), the “MIC, H37Rv” value was determined as 0.62 µg/mL (≈ 2.28 µM). Moreover, the “TB MIC - SRI” value in the series on Mtb H37Rv [1] (Tables 1-4 and text) was found to be 0.62 µg/mL. Also, the “TB MIC - ITR” value with Mtb H37Rv [2] (Tables 1-4) was 0.96 µg/mL. Further, the “LORA MIC - ITR” value in the series on NRP Mtb H37Rv cells (NRP Mtb, Tables 1-4 and text) was 0.44 µg/mL. Moreover, in the series with Vero cells, the “Vero Tox CC50” value came out at 34 µg/mL.
Consider `CCCC(C)Nc1n[n+]([O-])c2ccccc2[n+]1[O-]` (stereo not drawn) [Compound 8h, 3-(pentan-2-ylamino)benzo[e][1,2,4]triazine 1,4-dioxide], for which the MIC with Mtb H37Rv [1] (setting [3]) worked out at 5 µg/mL (≈ 20.1 µM); in the series on Mtb H37Rv [2] (Tables 1-4), 1.9 µg/mL (≈ 7.65 µM); in the series on NRP Mtb H37Rv cells (NRP Mtb, Tables 1-4 and text) it was 0.99 µg/mL (≈ 3.99 µM). In addition, the “Vero Tox CC50” value in the series on Vero cells (African green monkey, 72 h) amounted to 26 µg/mL.
Consider `[O-][n+]1nc(NC2CCCCCC2)[n+]([O-])c2ccc(F)cc21` [SRI-012282], for which the MIC in the series with Mtb H37Rv [1] (setting [4]) is 0.625 µg/mL (≈ 2.14 µM). In the series on Mtb H37Rv [2], this molecule displayed a TB MIC - UIC of 0.39 µg/mL. In the series with NRP Mtb H37Rv cells, this molecule gave an LORA MIC of 0.21 µg/mL. The “VERO Tox-SRI” value in the series with Vero cells (African green monkey, 72 h) was less than 2.5.
`[O-][n+]1nc(NC2CC3CCC2C3)[n+]([O-])c2cc3c(cc21)CCCC3` (stereo not drawn) [SRI-012498]: the MIC in the series with Mtb H37Rv [1] (setting [5]) and in the series with Mtb H37Rv [1] (setting [6]) was 1.25 µg/mL (≈ 3.83 µM) in each case. Further, the “VERO Tox-SRI” value in the series with Vero cells (African green monkey, 72 h) was 50.
Turning to `COCCNC(=O)c1ccc2c(c1)[n+]([O-])c(O)c(C#N)[n+]2[O-]` [Cmpd 4], the MIC with Mtb H37Rv [1] (setting [3]) was more than 20 µg/mL; with NRP Mtb H37Rv cells (NRP Mtb, Tables 1-4 and text), more than 32 µg/mL. In the series with Vero cells (African green monkey, 72 h), the “Vero Tox CC50” value is more than 16 µg/mL.
In the case of `CCNc1n[n+]([O-])c2cc(OC)ccc2[n+]1[O-]` [SRI-012285], the TB MIC - UIC with Mtb H37Rv [2] was 15.1 µg/mL. The same molecule had an LORA MIC in the series on NRP Mtb H37Rv cells of 16.2 µg/mL. For the same molecule, the “VERO Tox-SRI” value in the series with Vero cells (African green monkey, 72 h) amounted to 15.8.
On to `COc1ccc2c(c1)[n+]([O-])nc(NC1CCC1)[n+]2[O-]` [SRI-012463], for which the MIC in the series on Mtb H37Rv [1] (setting [4]) came out at 0.625 µg/mL (≈ 2.38 µM). For the same molecule, the “VERO Tox-SRI” value with Vero cells (African green monkey, 72 h) is listed as 9.85.
On the same counts, the results for `Cc1cccc2c1[n+]([O-])c(NC1CCCC1)n[n+]2[O-]` [SRI-012473] are 0.312 µg/mL (≈ 1.2 µM) and 3.7.
For `[O-][n+]1nc(NC2CC2)[n+]([O-])c2ccccc21` [Compound 8b, 3-(cyclopropylamino)benzo[e][1,2,4]triazine 1,4-dioxide], the MIC in the series on Mtb H37Rv [1] (setting [3]) came to 2.5 µg/mL (≈ 11.5 µM). Moreover, the “Vero Tox CC50” value with Vero cells (African green monkey, 72 h) was 21 µg/mL.
Take `[O-][n+]1nc(N2CCCC2)[n+]([O-])c2ccccc21` [Compound 17q, 3-(pyrrolidin-1-yl)benzo[e][1,2,4]triazine 1,4-dioxide]: in the series on Mtb H37Rv [1] (Table 5, read-out: MIC, H37Rv), the MIC stood at 0.31 µg/mL (≈ 1.33 µM). The “Vero Tox CC50” value in the series with Vero cells (African green monkey, 72 h) worked out at 17 µg/mL.
As to `[O-][n+]1nc(N[C@@H]2C[C@H]3CC[C@@H]2C3)[n+]([O-])c2ccc(Br)cc21` [SRI-012467], the MIC in the series with Mtb H37Rv [1] (setting [4]) was determined as 0.312 µg/mL (≈ 0.888 µM). Moreover, in the series with Vero cells (African green monkey, 72 h), the “VERO Tox-SRI” value turned out to be 0.81.
For `CN(Cc1ccccc1)c1n[n+]([O-])c2cc3c(cc2[n+]1[O-])CCC3` [Compound 20t, 3-(benzyl(methyl)amino)-7,8-dihydro-6H-indeno[5,6-e][1,2,4]triazine 1,4-dioxide], the MIC in the series on Mtb H37Rv [1] (Table 5, read-out: MIC, H37Rv) came to 0.31 µg/mL (≈ 0.962 µM); with NRP Mtb H37Rv cells (NRP Mtb, Tables 1-4 and text), 0.41 µg/mL (≈ 1.27 µM). Besides, the “Vero Tox CC50” value in the series on Vero cells (African green monkey, 72 h) worked out at 17 µg/mL.
On to `Cc1cccc2c1[n+]([O-])c(N[C@@H]1C[C@H]3CC[C@@H]1C3)n[n+]2[O-]` (racemic) [SRI-012461], for which the MIC with Mtb H37Rv [1] (setting [4]) amounted to 0.156 µg/mL (≈ 0.545 µM). Moreover, in the series with Vero cells (African green monkey, 72 h), the “VERO Tox-SRI” value came to 2.3.
Turning to `[O-][n+]1nc(NC2CCC2)[n+]([O-])c2cc3c(cc21)CCC3` [SRI-012403], in the series with Mtb H37Rv [1] (setting [4]), the MIC stood at 0.625 µg/mL (≈ 2.3 µM). In the series with Vero cells (African green monkey, 72 h), the “VERO Tox-SRI” value turned out to be 33.6.
In the same order, the values of `Cc1cc2c(cc1C)[n+]([O-])c(NC1CCC1)n[n+]2[O-]` [SRI-012459] are 0.625 µg/mL (≈ 2.4 µM) and 21.8.
Regarding `[O-][n+]1nc(NC2CCC2)[n+]([O-])c2cc3c(cc21)CCCC3` [SRI-012497], the MIC in the series on Mtb H37Rv [1] (setting [5]) and with Mtb H37Rv [1] (setting [6]) was 1.25 µg/mL (≈ 4.37 µM) each time. For the same molecule, in the series with Vero cells (African green monkey, 72 h), the “VERO Tox-SRI” value is reported as 50.
